Results from patent publication US8202855B2, “Substituted beta-lactams” (Allergan, Inc, priority 2008, dated 2012).

Tested on: lashes and adjacent hairs of patients having glaucoma
Assay: Observation of lashes in glaucoma patients treated in one eye
Format: in vivo
Conditions: glaucoma patients treated in only one eye
Source text: In the course of treating patients having glaucoma, treatment may only be appropriate in one eye. […] The lash appearance on the lids of the treated eyes would have appeared quite attractive if it represented a bilateral phenomenon. As a result of its asymmetric nature, the long lashes on one side could be construed as disturbing from a cosmetic standpoint. A systemic examination was preformed as a result of the asymmetric phenomenon. It soon became apparent that this altered appearance was not an isolated finding. […] Definite differences could be identified to varying degrees in the lashes and adjacent hairs of all patients who were taking the drug on a unilateral basis for longer than 6 months.
The changes in the lashes were apparent on gross inspection in several patients once attention was focused on the issue. In those with light colored hair and lashes, the differences were only seen easily with the aid of the high magnification and lighting capabilities of the slit lamp biomicroscope. In the course of glaucoma follow-up examination, attention is generally immediately focused on the eye itself. As a result of the high power magnification needed only one eye is seen at a time and the eye is seen at a high enough power that the lashes are not in focus. […]

With `CCNC(=O)CCC/C=C\C[C@@H]1[C@@H](/C=C/[C@@H](O)CCc2ccccc2)[C@H](O)C[C@@H]1O` [bimatoprost] the “lash appearance in treated eye versus non-treated eye” value was “longer, thicker, and fuller in the treated eye than in the non-treated eye”.
